Assay results taken from US10351598B2, “Peptide with anti-obesity and anti-diabetic efficacy and use thereof” (CAREGEN CO., LTD., priority 2016, dated 2019).
“And” between values parts separate entries of the source, which are not always exact repeats. Equal entries are not always repeated.

Columns and labels:
3T3-L1 cells = assay: Oil red O staining (lipid accumulation inhibition); assay type: cell-based; conditions: day 9 of differentiation induction
Experimental: In order to measure the lipid accumulation inhibitory effect by the peptides of the present invention, 3T3-L1 cells were seeded in 24-well plate at 2×10^4 cells/well, followed by culture, and then the medium was exchanged with a differentiation medium containing 10 ug/ml insulin, 0.1 uM dexamethasone, and 0.5 uM IBMX, followed by treatment with the peptides having different concentrations.
Thereafter, the medium was exchanged into a medium containing 10 ug/ml insulin every two days, and on day 9 of differentiation induction, an oil-red-red O staining assay was conducted.
The cells were washed with PBS, immobilized by the treatment with 4% para-form aldehyde for 10 minutes, washed with distilled water, and then cultured in 60% isopropanol for 5-10 minutes. The immobilized cells were stained with an oil red solution [1% Oil Red in isopropanol was diluted in dH2O in ratio of 6:4 (vol/vol)] for 30 minutes, and then again washed with PBS. The stained cells were observed by an optical microscope, followed by washing with distilled water, and 1 ml of 100% isopropanol was added thereto, followed by stirring at 4° C. The next day, quantification was conducted at 510 nm.

mouse adipose tissue [1] = assay: Glycerol assay (lipolysis induction); assay type: cell-based; conditions: compared with control group NC; for secretion of glycerol: mouse adipose tissue, cultured 48-72 hours with peptide
Text: Adipocytes store extra energy in the form of triglycerides in lipid droplets, and when energy is needed, the triglycerides are broken down into fatty acids and glycerols by enzymes, such as adipose triglyceride lipase, HSL, and monoglyceride lipase, to produce energy, or the triglycerides are used in cell signaling or lipid synthesis. The measurement of free glycerol release is for evaluating the lytic effect of the glycerides accumulated in fact cells.
In order to measure the lipolytic effect by the peptides of the present invention, the mouse adipose tissue was taken and cultured in 100-mm dish (DMEM) for one day. Thereafter, the adipose tissue was cut into equal weight, transferred onto 24-well plate, treated with the peptides, and cultured for 48-72 hours. Each 100 ul of the medium was collected according to the treatment period, and subjected to glycerol assay.

CGI-58 = CGI-58 RT-PCR; assay type: cell-based; conditions: intracellular
Experimental: (§1) Total RNA was extracted using Qiagen RNeasy kit. For synthesis of single-stranded DNA from RNA, […] of RNA, […] of random hexamer, and DEPC-treated water were added, followed by reaction for 5 minutes at 65° C. 5× first strand buffer, 0.1 M DTT, 10 mM of dNTP, and reverse transcriptase were added to reach a total volume of […], followed by reaction at 42° C. for 1 hour. After heating at 95° C. for 5 minutes again, 10 ml of distilled water was added to make a final volume, […], of cDNA.
(§2) PCR was conducted by mixing 3 ml of cDNA, 10 pmole of CGI 58 gene-specific primer, 10× Tag buffer, 10 mM dNTP, and i-Tag DNA synthetase. PCR conditions were: 94° C. for 30 seconds, 55-56° C. for 30 seconds, and 72° C. for 30 seconds. Cycle number genes were analyzed in the conditions in which the PCR results could be exponentially amplified. 5 ml of PCR product was obtained, electrophoresed on 1% agarose gel, and stained with ethidium bromide.

pHSL = assay: Immunohistochemical staining with anti-pHSL antibody (lipolysis induction); assay type: cell-based; conditions: mouse adipose tissue, 48-72 hours
Text: In order to investigate a mechanism by which the peptides of the present invention stimulate the lysis of triglycerides to suppress the lipid accumulation in adipocytes, the effect of the peptides of the present invention on HSL gene expression was examined. HSL enzyme is known as a lipolytic enzyme that breaks down triglycerides into free fatty acids and glycerols when the HSL enzyme breaks down lipids in the adipose tissue.
The mouse adipose tissue was taken and cultured in 100-mm dish (DMEM) for one day. Thereafter, the adipose tissue was cut into equal weight, transferred onto 24-well plate, treated with the peptides, and cultured for 48-72 hours. Each tissue slice was subjected to immunohistochemical staining using anti-pHSL antibody, and photographed by a fluorescent microscope.

[2] = test system: C57BL/6J mice fed with a high-fat diet; assay: Anti-diabetic efficacy evaluation (in vivo), blood glucose after oral glucose; parameters: blood glucose, individual animal / blood glucose, Mean: unit not given here; conditions: for blood glucose, Mean / blood glucose, individual animal: 60% fat diet mice; for blood glucose increase by glucose: high-fat diet mice, compared with the NC group
Text: 6-week-old C57BL/6J mice as experimental animals were purchased from Central Lab. Animal Inc. (Seoul, Korea), and then were used for experiments after acclimatization with a normal diet for 1 week. A high-fat feed was used from Research Diets, inc. (#product D12492).
The experimental animals were divided into a total of four groups, and three mice for each group were raised for 12 weeks.
In addition, the experimental animals were divided into a total of […], and three mice for each group were raised for 12 weeks.
After the pre-treatment with a peptide for 30 minutes, glucose (60 mg/300 ul distilled water) were orally administered, and then the blood glucose lowering effect over time was examined. The results are shown in FIGS. 6a to 6b and tables 5 and 6.

adiponectin = assay: Adiponectin RT-PCR in insulin resistance conditions (TNF-α); assay type: cell-based; conditions: reduced by TNF-α treatment, peptide treatment 16 hours
Experimental: as §1, §2
(§3) After the insulin resistance conditions were configured by TNF-α treatment, the peptide treatment was conducted for 16 hours, followed by collection and then the resultant product was collected and the changes of respective factors were examined by RT-PCR. RT-PCR conditions are the same as in example 3.

GLUT4 = GLUT4 RT-PCR in insulin resistance conditions (TNF-α); assay type: cell-based; conditions: reduced by TNF-α treatment, peptide treatment 16 hours
Experimental: as §1, §2, §3

AMPK-α1 = AMPK-α1 RT-PCR in insulin resistance conditions (TNF-α); assay type: cell-based; conditions: reduced by TNF-α treatment, peptide treatment 16 hours
Experimental: as §1, §2, §3

mouse adipose tissue [3] = assay: Histological analysis, H&E staining (lipolysis induction); assay type: cell-based; conditions: as the concentration of the peptide increased
Experimental: The mouse adipose tissue was taken and cultured in 100-mm dish (DMEM) for one day. Thereafter, the adipose tissue was cut into equal weight, transferred onto 24-well plate, treated with the peptides, and cultured for 48-72 hours. Each tissue slice was subjected to H&E staining. The photo files obtained from microscopic photographing were divided into compartments through Image J, and analyzed using a program that can compare the sizes of each compartment. Through this, the area of the total number of cells can be obtained, and the average area obtained by dividing the area by the total number of cells can also be obtained. The results may be expressed differently depending on the degree of staining. However, correction can be made by adjusting the threshold value in the beginning, and the results were obtained after the cells with relatively small areas from the comparison with the original file were removed.

IRS-1 = IRS-1 RT-PCR in insulin resistance conditions (TNF-α); assay type: cell-based; conditions: reduced by TNF-α treatment, peptide treatment 16 hours
Experimental: as §1, §2, §3

[4] = 0 min, IP 2 mg/ml 300 ul, Table 6
[5] = 0 min, oral 2 mg/ml 300 ul, Table 6
[6] = 10 min, IP 2 mg/ml 300 ul, Table 6
[7] = 10 min, oral 2 mg/ml 300 ul, Table 6
[8] = 40 min, IP 2 mg/ml 300 ul, Table 6
[9] = 40 min, oral 2 mg/ml 300 ul, Table 6
[10] = 80 min, IP 2 mg/ml 300 ul, Table 6
[11] = 80 min, oral 2 mg/ml 300 ul, Table 6
[12] = 140 min, IP 2 mg/ml 300 ul, Table 6
[13] = 140 min, oral 2 mg/ml 300 ul, Table 6
[14] = 200 min, IP 2 mg/ml 300 ul, Table 6
[15] = 200 min, oral 2 mg/ml 300 ul, Table 6
[16] = 0 min, oral 2 mg/ml 300 ul, Table 5
[17] = 30 min, oral 2 mg/ml 300 ul, Table 5
[18] = 60 min, oral 2 mg/ml 300 ul, Table 5
[19] = 90 min, oral 2 mg/ml 300 ul, Table 5
[20] = 120 min, oral 2 mg/ml 300 ul, Table 5

## His-Glu-Thr-Phe-Glu (HETFE) [SEQ ID NO: 2]
3T3-L1 cells
  degree of lipid accumulation in the cells: reduced
Mouse adipose tissue [1]; high-concentration peptide treatment
  increase of secretion of glycerol: 22%
Mouse adipose tissue [1]
  secretion of glycerol: increased
CGI-58
  expression of the lipolysis factor CGI-58: increased
pHSL
  expression of hormone sensitive lipase (pHSL): increased
[2]; [4]
  blood glucose, Mean: 155.00
  blood glucose, individual animal: 145.00 and 165.00
[2]; [5]
  blood glucose, Mean: 162
  blood glucose, individual animal: 159.00 and 165.00
[2]; [6]
  blood glucose, Mean: 197.00
  blood glucose, individual animal: 203.00 and 190.00
[2]; [7]
  blood glucose, Mean: 191
  blood glucose, individual animal: 188.00 and 193.00
[2]; [8]
  blood glucose, Mean: 179.00
  blood glucose, individual animal: 162.00 and 195.00
[2]; [9]
  blood glucose, Mean: 161
  blood glucose, individual animal: 164.00 and 157.00
[2]; [10]
  blood glucose, Mean: 164.00
  blood glucose, individual animal: 170.00 and 158.00
[2]; [11]
  blood glucose, Mean: 155
  blood glucose, individual animal: 163.00 and 147.00
[2]; [12]
  blood glucose, Mean: 123.00
  blood glucose, individual animal: 130.00 and 115.00
[2]; [13]
  blood glucose, Mean: 129
  blood glucose, individual animal: 122.00 and 135.00
[2]; [14]
  blood glucose, Mean: 112.00
  blood glucose, individual animal: 129.00 and 94.00
[2]; [15]
  blood glucose, Mean: 122
  blood glucose, individual animal: 118.00 and 126.00
[2]
  blood glucose increase by glucose: reduced
adiponectin
  expression of adiponectin: again increased
GLUT4
  expression of the glucose transporter GLUT4: again increased
AMPK-α1
  expression of AMPK-α1: again increased

## Lys-Glu-Arg-Lys-Ser (KERKS) [SEQ ID NO: 1]
3T3-L1 cells
  degree of lipid accumulation in the cells: reduced
Mouse adipose tissue [1]
  secretion of glycerol: increased
CGI-58
  expression of the lipolysis factor CGI-58: increased
Mouse adipose tissue [3]
  lipid area: reduced
  number of adipocytes: increased
pHSL
  expression of hormone sensitive lipase (pHSL): increased
[2]; [16]
  blood glucose, Mean: 134.67
  blood glucose, individual animal: 145.00 and 165.00
[2]; [17]
  blood glucose, Mean: 163.67
  blood glucose, individual animal: 203.00 and 190.00
[2]; [18]
  blood glucose, Mean: 142.00
  blood glucose, individual animal: 162.00 and 195.00
[2]; [19]
  blood glucose, Mean: 142.67
  blood glucose, individual animal: 170.00 and 158.00
[2]; [20]
  blood glucose, Mean: 125.67
  blood glucose, individual animal: 130.00 and 115.00
[2]
  blood glucose increase by glucose: reduced
adiponectin
  expression of adiponectin: again increased
GLUT4
  expression of the glucose transporter GLUT4: again increased
IRS-1
  expression of the insulin receptor signaling protein IRS-1: again increased
AMPK-α1
  expression of AMPK-α1: again increased
